Results taken from PubChem BioAssay (NCI).
Where “and” joins values, the source holds several entries; their conditions need not be identical. Equal values may be shown once.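 These data come from cells grown in 96-well plates and exposed to compound for 48 hours at five concentrations. At the GI50, growth is halved. TGI denotes the concentration required for complete inhibition of growth.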

test system: IGROV1 ovarian; test: growth of human tumour cells (NCI), 48 h

Row | SMILES | GI50 | TGI
1 | C[C@@H](Oc1cc(-n2cnc3ccc(CN4CCN(C)CC4)cc32)sc1C(N)=O)c1ccccc1C(F)(F)F | 0.0621 µM and 0.0336 µM | 15.1 µM and > 10 µM
2 | CCOC1Oc2ccccc2C(=O)/C1=C/Nc1ccc(C(C)=O)cc1 (stereo not given) | 19.5 µM | > 100 µM
3 | O=C(CCNC12CC3CC(CC(C3)C1)C2)c1ccccc1 |  | 55.4 µM
4 | COc1cccc(-c2cc(-c3cccc(NS(C)(=O)=O)c3)nc(N)c2C#N)c1O | 0.0577 µM | > 86.3 µM
5 | CCN1CCN(Cc2ccc(NC(=O)c3cccc(C#Cc4cccc5[nH]nc(N)c45)c3)cc2C(F)(F)F)CC1 | 0.0681 µM | 0.717 µM
6 | Cc1ccsc1C(=S)Nc1ccc(Cl)c(/C=N/OC(C)(C)C)c1 |  | > 100 µM
7 | CC(C)=CCC\C(C)=C/C=C/C(C)=C\C=C\C(C)=C/C=C/C=C(C)\C=C\C=C(C)/C=C/C=C(/C)CCC=C(C)C |  | > 100 µM
8 | NC(N)=NS(=O)(=O)c1ccc(Nc2c3ccccc3nc3c(C(=O)NCCO)cccc23)cc1 | 17.8 µM | 
9 | COc1cccc(C2c3cc4c(cc3OC(C)(N3CCCC3)C2C)OCO4)c1O (stereo not given) |  | > 70 µM
10 | COC(=O)CC[N+]1=CCC(c2ccccc2)(c2ccccc2)O1 |  | > 100 µM
11 | CCN(CC)N=Nc1c(C(N)=O)n[nH]c1C |  | > 100 µM
12 | O=C1NC(=NCCc2cccc(F)c2)S/C1=C\c1ccc2ncccc2c1 | 5.15 µM | > 25 µM
13 | COc1cc(/C=N\NC(=O)CN2CCN(c3cc4c(cc3F)c(=O)c(C(=O)N/N=C/c3cc(OC)c(OC)c(OC)c3)cn4C3CC3)CC2)cc(OC)c1OC | 0.365 µM | 11.8 µM
14 | OCCN(CCO)c1ncnc2c1ncn2Cc1ccc(CCl)cc1 | 19.7 µM | 40.3 µM
15 | Cc1ccc2c(C)c3c(ccc4ccccc43)c[n+]2c1 | 9.28 µM | 80.1 µM
16 | Cc1ccc(CN2CCC(C(=O)Nc3ccc(-c4cc5ccccc5[nH]4)cc3)CC2)o1 | > 100 µM | > 100 µM
17 | C=CC(=O)Nc1cc(Nc2ncc(C(=O)OC(C)C)c(-c3cn(C)c4ccccc34)n2)c(OC)cc1N(C)CCN(C)C | 0.399 µM | 3.12 µM
18 | O=C(Nc1ccc(F)cc1)Nc1ccc(Cl)c([N+](=O)[O-])c1 | 4.77 µM | 18.6 µM
19 | CCOC(=O)Cn1c(C(F)(F)F)nc2nc(Cl)c(Cl)nc21 |  | > 76.6 µM
20 | CC1CCc2nc[nH]c(=O)c21 (stereo not given) | > 100 µM | > 100 µM
21 | Fc1[nH]nc2ccc([C@@H]3Nc4ccc5[nH]ncc5c4[C@H]4C5CCC(C5)[C@@H]34)cc12 (stereo not given in full) | 0.86 µM | 16 µM
22 | COC1/C=C/OC2(C)Oc3c(C)c(O)c4c(O)c(c(/C=N/Nc5ccc([N+](=O)[O-])cc5[N+](=O)[O-])c(O)c4c3C2=O)NC(=O)C(C)=C/C=C/C(C)C(O)C(C)C(O)C(C)C(OC(C)=O)C1C (stereo not given) | 1.87 µM | > 50 µM

test system: MOLT-4 leukemia; test: growth of human tumour cells (NCI), 48 h

Row | SMILES | TGI [µM] | GI50 [µM]
23 | CN(C)c1ccc(/C=C\C2=[N+](C)c3ccccc3C2(C)C)cc1 | > 100 | 
24 | COc1cc2c(c3oc4c(O)cccc4c(=O)c13)CC(C(C)(O)CO)O2 (stereo not given) | 62.2 | 
25 | CC(=O)OC1OC([C@@H]2c3cccc(O)c3C(=O)c3c(O)cc(C)cc32)C(O)C(O)C1O (stereo not given in full) | 0.662 | 0.0384
26 | Nc1nc(-n2c(-c3ccccc3)nc3c(Br)cc(Br)cc3c2=O)nnc1-c1cccc(Cl)c1Cl | > 100 | 25.4
27 | C[N+](C)(C)CC(=O)N/N=C(/CC(=O)CC(C1=C(O)c2ccccc2OC1)c1ccccc1)C(=O)Nc1cccc(Cl)c1 (stereo not given) | > 100 | 
28 | COC(=O)/C=C1\S/C(=N\NC(=O)c2cc3ccc2/C=C\c2ccc(cc2)/C=C\3)N(c2ccccc2)C1=O | > 100 | 3.12
29 | COC([CH2][Hg][n]1cnc2c1c(=O)n(C)c(=O)n2C)CN1C(=O)c2ccccc2S1(=O)=O (stereo not given) | > 100 | > 100
30 | COc1ccc(CC2c3cc4c(cc3CCN2C)OCO4)c(C=O)c1OC (stereo not given) | > 100 | 
31 | CN1CCCCC1CCN1c2ccccc2Sc2ccc(Cl)cc21 (stereo not given) | 10.2 | 3.2
